Legend:
C jejuni PglD [1] = molecular target: T1, C jejuni PglD (Campylobacter jejuni subsp. jejuni serotype O:2, UniProt Q0P9D1); assay: dynamic light scattering of PglD/inhibitor complex; details: apo PglD 31% PDI
C jejuni PglD [2] = molecular target: T1, C jejuni PglD; assay: PglD inhibition assay with varying substrate concentrations; type: biochemical
[3] = molecular target: C. jejuni NCTC 11168 PglD acetyltransferase (Campylobacter jejuni subsp. jejuni serotype O:2, UniProt Q0P9D1); assay: continuous C. jejuni PglD inhibition assay; type: biochemical; details: for Km: PglD substrates
Chain of C. jejuni NCTC 11168 PglD acetyltransferase (Q0P9D1 whole entry): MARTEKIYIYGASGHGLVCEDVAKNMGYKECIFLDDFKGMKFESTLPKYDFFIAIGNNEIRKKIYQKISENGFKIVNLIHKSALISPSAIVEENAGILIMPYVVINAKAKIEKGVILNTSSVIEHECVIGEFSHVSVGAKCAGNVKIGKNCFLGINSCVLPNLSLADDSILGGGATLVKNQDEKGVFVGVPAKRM

S. typhimurium = details: mouse infection model; cited from earlier work
[4] = at therapeutic doses; cited from earlier work
F. tularensis = details: both pre- and post-infection; cited from earlier work
pathogen growth = details: in vitro; cited from earlier work
[5] = long-term stability in solution; type: physicochemical
solubility properties = type: physicochemical

T1 sequence (Q0P9D1 whole entry): as above

## CO[C@H](CNc1nc(CCc2ccc(NC(C)=O)cc2)nc2sc(C(=O)O)c(C)c12)c1ccccc1 [Compound 55, (S)-2-(4-Acetamidophenethyl)-4-((2-methoxy-2-phenylethyl)amino)-5-methylthieno[2,3-d]pyrimidine-6-carboxylic acid]
C jejuni PglD [1]
  polydispersity index (PDI) of PglD/inhibitor complex: 24 % PDI

## COc1cc(CCNc2nc(CCc3ccccc3)nc3sc(C(=O)O)c(C)c23)cc(OC)c1 [Compound 37, 4-((3,5-Dimethoxyphenethyl)amino)-5-methyl-2-phenethylthieno[2,3-d]pyrimidine-6-carboxylic acid]
C jejuni PglD [2]; 2-fold increase in AcCoA
  decrease in potency: 2 fold
C jejuni PglD [2]; 5-fold increase in AcCoA
  decrease in potency: 4 fold
C jejuni PglD [2]; significantly higher UDP-4-amino-sugar concentrations
  effect of higher UDP-4-amino-sugar concentrations on the inhibition: no measurable effect

## CNc1nc(CCc2ccccn2)nc2sc(C(=O)O)c(C)c12 [Compound 43, 5-Methyl-4-(methylamino)-2-(2-(pyridin-2-yl)ethyl)thieno[2,3-d]pyrimidine-6-carboxylic acid]
[3]; 43 vs 17
  enhancement of potency versus 17: 4.8 fold

## O=S(=O)(Nc1ccccc1)c1ccc(NC(=S)Nc2ccccc2)cc1 [Compound 56, N-phenyl-4-(3-phenylthioureido)benzenesulfonamide]
S. typhimurium
  efficacy against S. typhimurium: prophylactic efficacy
[4]
  toxicity: not toxic
F. tularensis
  protection against F. tularensis: provided protection
Pathogen growth
  effect on pathogen growth: did not affect pathogen growth

## CC(=O)SCCNC(=O)CCNC(=O)[C@H](O)C(C)(C)COP(=O)(O)OP(=O)(O)OC[C@H]1O[C@@H](n2cnc3c(N)ncnc32)[C@H](O)[C@@H]1OP(=O)(O)O [AcCoA, acetyl coenzyme A]
[3]
  Km: 295 µM

## CC(=O)N[C@H]1[C@@H](OP(=O)(O)OP(=O)(O)OC[C@H]2O[C@@H](n3ccc(=O)[nH]c3=O)[C@H](O)[C@@H]2O)O[C@H](C)[C@@H](N)[C@@H]1O [UDP-4-amino-sugar]
[3]
  Km: 274 µM

## Cc1c(C(=O)O)sc2nc(/C=C/c3ccc4[nH]ccc4c3)[nH]c(=O)c12 [Compound 4]
[5]
  long-term stability in solution: poor long-term stability in solution
Solubility properties
  solubility properties: poor solubility properties

From article PMC5506375 (Journal of medicinal chemistry, 2017)
